According to ChEMBL document CHEMBL1201862, “PubChem BioAssay data set” (2004):
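How tested: cells in 96-well plates exposed to compound for 48 hours at five concentrations. At the GI50, growth is halved.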 The source made the active and inactive calls. Cut-off read from the data, not from the text of the source: active = GI50 up to about 1.1 µM and inactive = higher.

Key:
Assay in all cases: NCI tumour cell line growth inhibition, 48 h
[1] = system: LXFL 529
[2] = system: K562
[3] = system: OVCAR-3
[4] = system: 786-0
[5] = system: SF-268
[6] = system: SW-620
[7] = system: TK-10
[8] = system: A549
[9] = system: HCC 2998
[10] = system: SF-539
[11] = system: HOP-18
[12] = system: DLD-1
[13] = system: Malme-3M
[14] = system: DMS-114
[15] = system: SNB-19
[16] = system: BT-549
[17] = system: DU-145
[18] = system: PC-3
[19] = system: Hs-578T
[20] = system: MDA-N

| SMILES | GI50 [1] | GI50 [2] | GI50 [3] | GI50 [4] | GI50 [5] | GI50 [6] | GI50 [7] | GI50 [8] | GI50 [9] | GI50 [10] | GI50 [11] | GI50 [12] | GI50 [13] | GI50 [14] | GI50 [15] | GI50 [16] | GI50 [17] | GI50 [18] | GI50 [19] | GI50 [20] |
| --- | --- | --- | --- | --- | --- | --- | --- | --- | --- | --- | --- | --- | --- | --- | --- | --- | --- | --- | --- | --- |
| CCCCP1(=O)C=CC(Cl)=C(C)C1 (stereo not drawn) | > 100 µM (inactive) | > 100 µM (inactive) | > 100 µM (inactive) | > 100 µM (inactive) | > 100 µM (inactive) | > 100 µM (inactive) | > 100 µM (inactive) | > 100 µM (inactive) | > 100 µM (inactive) | > 100 µM (inactive) | > 100 µM (inactive) | > 100 µM (inactive) | > 100 µM (inactive) | – | – | – | – | – | – | – |
| c1ccc(COC2(OCc3ccccc3)CC3OC2C2NN=NC32)cc1 (stereo not drawn) | 15.3 µM (inactive) | 15.6 µM (inactive) | 18.3 µM (inactive) | 20 µM (inactive) | 22.1 µM (inactive) | 12.5 µM (inactive) | – | 57.1 µM (inactive) | > 10 µM (inactive) | 22.1 µM (inactive) | 36.2 µM (inactive) | 15.8 µM (inactive) | 22.4 µM (inactive) | – | – | – | – | – | – | – |
| CC(=O)NNc1nc(C)c(C(=O)NNC(=O)C(=O)Nc2cccc(C(C)=O)c2)s1 | – | 32.1 µM (inactive) | – | – | 21.5 µM (inactive) | 39.5 µM (inactive) | 16.9 µM (inactive) | 34.8 µM (inactive) | 17.3 µM (inactive) | 18.7 µM (inactive) | – | 28.1 µM (inactive) | – | 18.3 µM (inactive) | 41 µM (inactive) | – | – | – | – | – |
| CC(NCCS(=O)(=O)O)C(=O)O (stereo not drawn) | – | > 100 µM (inactive) | > 45.6 µM (inactive) | – | > 100 µM (inactive) | > 100 µM (inactive) | – | > 100 µM (inactive) | > 100 µM (inactive) | > 100 µM (inactive) | > 100 µM (inactive) | > 100 µM (inactive) | > 100 µM (inactive) | > 100 µM (inactive) | > 100 µM (inactive) | – | – | – | – | – |
| O=C(O)CNS(=O)(=O)c1ccc(NC(=O)Nc2ccccc2)cc1 | – | > 100 µM (inactive) | > 100 µM (inactive) | – | > 100 µM (inactive) | > 100 µM (inactive) | – | > 100 µM (inactive) | > 100 µM (inactive) | > 100 µM (inactive) | > 100 µM (inactive) | > 100 µM (inactive) | > 100 µM (inactive) | > 100 µM (inactive) | > 100 µM (inactive) | – | – | – | – | – |
| COC(=O)C1CCC(=O)N1C(=O)Cc1ccc(OC)cc1 (stereo not drawn) | > 100 µM (inactive) | – | > 100 µM (inactive) | – | > 100 µM (inactive) | > 100 µM (inactive) | > 100 µM (inactive) | > 100 µM (inactive) | – | – | – | – | – | > 100 µM (inactive) | > 100 µM (inactive) | – | – | – | – | – |
| CO/C=C1\OC(=O)C=C1OC | – | > 100 µM (inactive) | > 100 µM (inactive) | – | > 100 µM (inactive) | > 100 µM (inactive) | – | > 100 µM (inactive) | > 100 µM (inactive) | > 100 µM (inactive) | > 100 µM (inactive) | > 100 µM (inactive) | > 100 µM (inactive) | > 100 µM (inactive) | > 100 µM (inactive) | – | – | – | – | – |
| COc1ccc2nc(NC(=O)C(=O)C(C(=O)c3ccccc3-c3ccccc3)C3OC(=O)c4ccccc43)sc2c1 (stereo not drawn) | 13.5 µM (inactive) | 30.2 µM (inactive) | 18.5 µM (inactive) | 15.6 µM (inactive) | 20 µM (inactive) | 23.8 µM (inactive) | 25.2 µM (inactive) | 23.8 µM (inactive) | 15.4 µM (inactive) | 15.2 µM (inactive) | – | 18.7 µM (inactive) | 12.1 µM (inactive) | 16.6 µM (inactive) | – | – | – | – | – | – |
| CC1=CC(=O)NP(=O)(C23CC4CC(CC(C4)C2)C3)N1 (stereo not drawn) | > 100 µM (inactive) | > 100 µM (inactive) | > 100 µM (inactive) | > 100 µM (inactive) | > 100 µM (inactive) | > 100 µM (inactive) | > 100 µM (inactive) | – | – | > 100 µM (inactive) | > 100 µM (inactive) | > 100 µM (inactive) | > 100 µM (inactive) | – | > 100 µM (inactive) | – | – | – | – | – |
| CN(C)CCNC(=O)c1cccc2[nH]c(-c3ccc(Cl)cc3)nc12 | – | 2.93 µM (inactive) | 10.2 µM (inactive) | – | 12.7 µM (inactive) | 3.96 µM (inactive) | – | 3.66 µM (inactive) | 4.05 µM (inactive) | 4.65 µM (inactive) | 14.4 µM (inactive) | 4.8 µM (inactive) | 6.82 µM (inactive) | 8.61 µM (inactive) | 7.87 µM (inactive) | – | – | – | – | – |
| O=C1C2=C(C3=NCCc4c[nH]c1c43)c1c(Br)cc(Br)cc1CCN2 | – | 2.68 µM (inactive) | 2.77 µM (inactive) | – | 2.59 µM (inactive) | 2.24 µM (inactive) | – | 2.73 µM (inactive) | 2.01 µM (inactive) | 3.42 µM (inactive) | 3.15 µM (inactive) | 1.79 µM (inactive) | – | 2.02 µM (inactive) | 11.2 µM (inactive) | – | – | – | – | – |
| CC(C)C1NC(=O)CC(c2ccccc2)N(N=O)C1c1ccccc1 (stereo not drawn) | – | 71.4 µM (inactive) | > 68.9 µM (inactive) | – | > 100 µM (inactive) | > 100 µM (inactive) | – | > 100 µM (inactive) | > 100 µM (inactive) | > 100 µM (inactive) | > 100 µM (inactive) | > 100 µM (inactive) | > 100 µM (inactive) | > 95.7 µM (inactive) | > 100 µM (inactive) | – | – | – | – | – |
| Cc1ccc(NC(=O)CC(=O)N2N=C(c3ccccc3)C(/N=N/c3ccc(S(=O)(=O)CCOS(=O)(=O)O)cc3)C2=O)cc1 (stereo not drawn) | – | > 100 µM (inactive) | > 100 µM (inactive) | 60.5 µM (inactive) | > 100 µM (inactive) | > 100 µM (inactive) | > 100 µM (inactive) | > 100 µM (inactive) | > 100 µM (inactive) | > 100 µM (inactive) | – | – | > 100 µM (inactive) | – | > 100 µM (inactive) | > 100 µM (inactive) | > 100 µM (inactive) | > 100 µM (inactive) | 29.2 µM (inactive) | > 100 µM (inactive) |
| Cc1cccc2nc3c(C(=O)NCCN(C)C)cccc3cc12 | – | 1.8 µM (inactive) | 2.05 µM (inactive) | – | 1.68 µM (inactive) | 1 µM (active) | – | 1.09 µM (active) | 2.05 µM (inactive) | 2.01 µM (inactive) | 2.04 µM (inactive) | 1.42 µM (inactive) | 1.38 µM (inactive) | 1.31 µM (inactive) | 0.94 µM (active) | – | – | – | – | – |
| Cn1c(=O)c2nc(N3CCOCC3)cnc2n(C)c1=O | > 100 µM (inactive) | > 100 µM (inactive) | > 100 µM (inactive) | – | > 100 µM (inactive) | > 100 µM (inactive) | > 100 µM (inactive) | > 100 µM (inactive) | > 100 µM (inactive) | > 100 µM (inactive) | – | > 100 µM (inactive) | > 100 µM (inactive) | > 100 µM (inactive) | > 100 µM (inactive) | – | – | – | – | – |
| C=CCN(N=O)C(=O)N(CCC)CCCCC(NC(C)=O)C(=O)NCc1ccccc1 (stereo not drawn) | 62.5 µM (inactive) | 51.6 µM (inactive) | 75.5 µM (inactive) | > 100 µM (inactive) | > 100 µM (inactive) | > 100 µM (inactive) | > 100 µM (inactive) | > 100 µM (inactive) | – | > 100 µM (inactive) | > 100 µM (inactive) | – | > 100 µM (inactive) | 59.2 µM (inactive) | > 100 µM (inactive) | – | – | – | – | – |
